According to PMC4286194 (Biochemical Journal, 2015):

How the values were obtained:
CRTC3 = CRTC3 nuclear translocation (immunofluorescence); assay type: cell-based, mouse; conditions: bone-marrow-derived macrophages, 1 h
Description: Macrophages were seeded on glass coverslips and treated with inhibitors for 1 h. Cells were then fixed for 10 min in 4% paraformaldehyde, permeabilized for 5 min using 0.1% Triton X-100 in PBS and blocked for 45 min using 3% BSA in PBS. Cells were stained with anti-CRTC3 and anti-tubulin followed by Alexa Fluor® […] anti-rabbit and Alexa Fluor® 488-conjugated anti-mouse antibodies respectively. Antibodies were diluted in blocking buffer and incubated with the cells for 45 min. Cells were mounted in Prolong Gold Antifade Reagent containing DAPI (Invitrogen) and visualized under a Zeiss LSM 700 confocal microscope using an Alpha Plan-Apochromat ×100/numerical aperture (NA) 1.46 objective (optical section thickness 0.7 μm). Fields of cells were selected at random using only the DAPI stained channel. Optical sections were taken through the centre of the nuclei, 10 fields collected per coverslip and images were quantified using the Volocity programme (PerkinElmer). Nuclei were identified using the DAPI stained channel, merged objects were separated and the mean intensity of the […] in the nuclear and cytoplasmic regions was measured. For each field, the mean of the nuclear to cytoplasmic intensity ratio was calculated, which was subsequently used to determine the overall mean nuclear to cytoplasmic intensity ratio for each treatment.

CDK9-Cyclin T1 = CDK9-Cyclin T1 (Homo sapiens, UniProt P50750); experiment: Kinase profiling; assay type: biochemical
Sequence of CDK9-Cyclin T1 (P50750 whole entry): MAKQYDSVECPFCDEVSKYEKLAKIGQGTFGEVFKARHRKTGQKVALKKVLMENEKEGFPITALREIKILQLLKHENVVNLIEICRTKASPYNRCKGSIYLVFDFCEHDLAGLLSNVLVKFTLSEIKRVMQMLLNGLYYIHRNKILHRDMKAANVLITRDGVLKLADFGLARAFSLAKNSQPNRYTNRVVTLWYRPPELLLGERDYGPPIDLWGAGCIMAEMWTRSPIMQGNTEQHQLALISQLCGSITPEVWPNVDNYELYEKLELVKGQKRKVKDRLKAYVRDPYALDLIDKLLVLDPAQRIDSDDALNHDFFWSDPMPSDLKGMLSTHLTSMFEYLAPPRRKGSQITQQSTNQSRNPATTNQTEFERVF
Sequence of CDK9-Cyclin T1 (O60563 whole entry partner): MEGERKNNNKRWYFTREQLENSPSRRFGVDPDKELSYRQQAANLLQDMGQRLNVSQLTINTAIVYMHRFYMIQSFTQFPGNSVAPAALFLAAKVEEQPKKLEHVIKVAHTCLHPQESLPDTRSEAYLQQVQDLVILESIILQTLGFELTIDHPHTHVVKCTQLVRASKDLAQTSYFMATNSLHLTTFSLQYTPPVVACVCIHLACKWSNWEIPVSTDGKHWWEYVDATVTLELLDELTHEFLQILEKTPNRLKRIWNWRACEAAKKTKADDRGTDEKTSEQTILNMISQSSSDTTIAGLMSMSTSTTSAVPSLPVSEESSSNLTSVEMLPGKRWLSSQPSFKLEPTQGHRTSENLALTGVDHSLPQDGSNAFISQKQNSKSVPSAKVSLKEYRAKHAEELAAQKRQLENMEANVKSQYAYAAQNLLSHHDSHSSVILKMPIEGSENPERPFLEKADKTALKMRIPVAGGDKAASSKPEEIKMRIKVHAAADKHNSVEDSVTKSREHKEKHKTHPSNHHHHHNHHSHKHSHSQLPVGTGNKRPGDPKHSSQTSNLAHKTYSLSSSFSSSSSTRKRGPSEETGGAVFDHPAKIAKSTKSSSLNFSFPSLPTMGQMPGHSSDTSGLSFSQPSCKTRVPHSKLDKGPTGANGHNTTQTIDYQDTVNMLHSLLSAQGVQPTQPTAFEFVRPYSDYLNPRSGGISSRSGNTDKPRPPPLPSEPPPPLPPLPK

CSK = CSK (Homo sapiens, UniProt P41240); experiment: Kinase profiling; assay type: biochemical
Sequence of CSK (P41240 whole entry): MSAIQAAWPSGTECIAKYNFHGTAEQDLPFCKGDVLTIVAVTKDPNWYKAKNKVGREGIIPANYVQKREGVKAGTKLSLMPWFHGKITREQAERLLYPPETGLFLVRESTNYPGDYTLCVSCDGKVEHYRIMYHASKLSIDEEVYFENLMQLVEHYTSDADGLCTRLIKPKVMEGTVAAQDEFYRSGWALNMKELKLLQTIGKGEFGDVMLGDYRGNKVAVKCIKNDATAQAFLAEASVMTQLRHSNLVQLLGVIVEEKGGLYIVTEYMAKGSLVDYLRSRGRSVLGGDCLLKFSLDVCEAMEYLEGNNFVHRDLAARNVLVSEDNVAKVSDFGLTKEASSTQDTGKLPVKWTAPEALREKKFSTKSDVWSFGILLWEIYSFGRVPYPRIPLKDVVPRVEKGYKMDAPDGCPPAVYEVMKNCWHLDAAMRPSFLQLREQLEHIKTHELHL

EIF2AK3 = molecular target: T1, EIF2AK3 (Homo sapiens, UniProt Q9NZJ5); experiment: Kinase profiling; assay type: biochemical
T1 sequence (Q9NZJ5 30-1116): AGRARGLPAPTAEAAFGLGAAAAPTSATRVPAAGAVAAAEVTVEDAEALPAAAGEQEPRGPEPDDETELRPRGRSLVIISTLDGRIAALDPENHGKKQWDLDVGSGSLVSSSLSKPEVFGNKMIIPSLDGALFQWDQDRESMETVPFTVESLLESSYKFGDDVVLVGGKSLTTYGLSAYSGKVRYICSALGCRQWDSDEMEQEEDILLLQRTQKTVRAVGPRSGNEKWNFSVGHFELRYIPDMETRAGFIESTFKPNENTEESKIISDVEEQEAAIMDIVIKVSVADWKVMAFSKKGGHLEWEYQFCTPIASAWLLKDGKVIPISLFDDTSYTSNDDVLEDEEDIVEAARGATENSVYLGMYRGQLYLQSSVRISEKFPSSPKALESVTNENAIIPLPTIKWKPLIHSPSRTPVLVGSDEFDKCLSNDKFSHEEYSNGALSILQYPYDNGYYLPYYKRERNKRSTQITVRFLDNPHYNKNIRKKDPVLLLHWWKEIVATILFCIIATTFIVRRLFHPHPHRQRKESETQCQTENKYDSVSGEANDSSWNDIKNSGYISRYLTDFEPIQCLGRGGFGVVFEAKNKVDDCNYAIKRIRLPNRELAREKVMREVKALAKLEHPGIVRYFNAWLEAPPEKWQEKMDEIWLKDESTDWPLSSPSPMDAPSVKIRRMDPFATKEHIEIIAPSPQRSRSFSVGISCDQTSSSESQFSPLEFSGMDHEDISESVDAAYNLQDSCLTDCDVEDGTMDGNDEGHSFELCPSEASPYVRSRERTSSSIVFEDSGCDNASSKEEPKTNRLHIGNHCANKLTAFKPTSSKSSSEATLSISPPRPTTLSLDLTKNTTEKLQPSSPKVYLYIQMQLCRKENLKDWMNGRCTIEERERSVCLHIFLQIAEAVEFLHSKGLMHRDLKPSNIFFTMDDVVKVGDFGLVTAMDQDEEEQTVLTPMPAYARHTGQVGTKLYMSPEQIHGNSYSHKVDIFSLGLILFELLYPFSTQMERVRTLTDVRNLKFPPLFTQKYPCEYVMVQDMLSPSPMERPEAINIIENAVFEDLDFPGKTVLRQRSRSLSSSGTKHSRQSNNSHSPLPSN

IRR = IRR (Homo sapiens, UniProt P14616); experiment: Kinase profiling; assay type: biochemical
Sequence of IRR (P14616 27-1297): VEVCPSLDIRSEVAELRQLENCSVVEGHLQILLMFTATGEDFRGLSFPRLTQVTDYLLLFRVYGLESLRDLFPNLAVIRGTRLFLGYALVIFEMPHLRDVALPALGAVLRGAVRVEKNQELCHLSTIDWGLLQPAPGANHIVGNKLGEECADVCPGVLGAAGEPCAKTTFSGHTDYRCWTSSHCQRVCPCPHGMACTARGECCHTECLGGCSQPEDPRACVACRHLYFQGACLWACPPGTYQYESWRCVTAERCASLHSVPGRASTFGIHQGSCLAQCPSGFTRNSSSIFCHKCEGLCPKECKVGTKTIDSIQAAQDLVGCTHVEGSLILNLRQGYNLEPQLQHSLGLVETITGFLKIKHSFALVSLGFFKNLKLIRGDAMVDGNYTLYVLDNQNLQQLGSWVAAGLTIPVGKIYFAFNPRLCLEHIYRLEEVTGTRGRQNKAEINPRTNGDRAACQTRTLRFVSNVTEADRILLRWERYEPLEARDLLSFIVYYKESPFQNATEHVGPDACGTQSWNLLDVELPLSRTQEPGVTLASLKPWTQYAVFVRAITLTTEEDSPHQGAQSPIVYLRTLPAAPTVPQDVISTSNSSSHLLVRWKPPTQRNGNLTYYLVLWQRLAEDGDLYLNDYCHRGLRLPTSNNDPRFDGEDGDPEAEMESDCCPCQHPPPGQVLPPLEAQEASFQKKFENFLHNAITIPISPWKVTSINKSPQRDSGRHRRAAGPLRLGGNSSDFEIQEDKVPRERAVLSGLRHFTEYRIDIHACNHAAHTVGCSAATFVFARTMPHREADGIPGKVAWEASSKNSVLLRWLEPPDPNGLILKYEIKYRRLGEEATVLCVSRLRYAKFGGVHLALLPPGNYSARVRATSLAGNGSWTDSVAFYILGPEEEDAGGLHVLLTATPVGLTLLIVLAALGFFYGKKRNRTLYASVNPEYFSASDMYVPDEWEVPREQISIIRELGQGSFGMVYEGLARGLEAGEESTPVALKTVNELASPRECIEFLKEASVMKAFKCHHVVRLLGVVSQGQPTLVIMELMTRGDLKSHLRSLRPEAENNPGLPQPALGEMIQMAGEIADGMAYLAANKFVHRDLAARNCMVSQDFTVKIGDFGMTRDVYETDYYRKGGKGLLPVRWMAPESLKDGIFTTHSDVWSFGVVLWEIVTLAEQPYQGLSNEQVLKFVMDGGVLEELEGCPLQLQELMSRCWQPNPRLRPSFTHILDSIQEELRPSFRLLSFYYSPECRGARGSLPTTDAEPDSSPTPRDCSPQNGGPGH

NUAK1 = molecular target: T2, NUAK1 (Homo sapiens, UniProt O60285); experiment: Kinase profiling; assay type: biochemical
T2 sequence (O60285 1-661): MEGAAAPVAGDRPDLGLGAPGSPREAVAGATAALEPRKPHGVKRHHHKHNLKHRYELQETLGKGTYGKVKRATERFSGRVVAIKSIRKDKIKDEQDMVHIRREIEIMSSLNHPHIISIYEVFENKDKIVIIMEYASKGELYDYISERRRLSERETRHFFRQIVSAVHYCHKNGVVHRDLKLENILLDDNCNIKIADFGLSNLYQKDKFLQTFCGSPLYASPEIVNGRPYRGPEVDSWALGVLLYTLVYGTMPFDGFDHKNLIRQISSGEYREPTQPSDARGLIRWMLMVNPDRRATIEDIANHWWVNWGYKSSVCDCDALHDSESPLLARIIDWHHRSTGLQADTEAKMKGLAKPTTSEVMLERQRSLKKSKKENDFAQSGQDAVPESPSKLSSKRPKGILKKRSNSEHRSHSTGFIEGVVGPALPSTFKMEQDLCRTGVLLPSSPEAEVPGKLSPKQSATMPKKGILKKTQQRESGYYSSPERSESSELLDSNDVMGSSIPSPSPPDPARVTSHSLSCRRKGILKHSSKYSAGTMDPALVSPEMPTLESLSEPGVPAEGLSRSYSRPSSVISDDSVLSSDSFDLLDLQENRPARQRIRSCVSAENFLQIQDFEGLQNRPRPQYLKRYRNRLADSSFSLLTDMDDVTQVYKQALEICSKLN

TrkA = TrkA (Homo sapiens, UniProt P04629); experiment: Kinase profiling; assay type: biochemical
Sequence of TrkA (P04629 33-796): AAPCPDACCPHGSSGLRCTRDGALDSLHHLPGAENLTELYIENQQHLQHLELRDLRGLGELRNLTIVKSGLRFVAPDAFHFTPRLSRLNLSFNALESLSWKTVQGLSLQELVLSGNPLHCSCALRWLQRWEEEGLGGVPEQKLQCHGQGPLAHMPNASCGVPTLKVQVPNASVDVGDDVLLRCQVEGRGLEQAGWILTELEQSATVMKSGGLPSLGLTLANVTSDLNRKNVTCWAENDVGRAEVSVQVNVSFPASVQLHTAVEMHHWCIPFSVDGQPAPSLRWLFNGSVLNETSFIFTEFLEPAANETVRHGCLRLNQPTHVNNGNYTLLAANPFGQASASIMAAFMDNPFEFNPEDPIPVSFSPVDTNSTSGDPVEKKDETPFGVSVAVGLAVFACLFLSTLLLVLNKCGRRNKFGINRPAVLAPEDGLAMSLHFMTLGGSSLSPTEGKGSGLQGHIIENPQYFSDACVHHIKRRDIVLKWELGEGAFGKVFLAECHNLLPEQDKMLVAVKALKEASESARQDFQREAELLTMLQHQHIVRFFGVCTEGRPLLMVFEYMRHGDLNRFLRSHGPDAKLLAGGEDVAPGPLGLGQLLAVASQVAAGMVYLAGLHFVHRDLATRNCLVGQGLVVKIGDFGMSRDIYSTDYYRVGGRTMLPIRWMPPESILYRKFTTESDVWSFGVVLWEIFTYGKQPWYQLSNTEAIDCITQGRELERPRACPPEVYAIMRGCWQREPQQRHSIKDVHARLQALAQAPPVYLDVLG

SIK3 = molecular target: T3, SIK3 (Homo sapiens, UniProt Q9Y2K2); experiment: Kinase assay, IC50 curve; assay type: biochemical; conditions: read-out: IC50 against SIK3
T3 construct: GST; made in house; host or cells: HEK293 cells

BTK = BTK (Homo sapiens, UniProt Q06187); experiment: Kinase profiling; assay type: biochemical
Sequence of BTK (Q06187 whole entry): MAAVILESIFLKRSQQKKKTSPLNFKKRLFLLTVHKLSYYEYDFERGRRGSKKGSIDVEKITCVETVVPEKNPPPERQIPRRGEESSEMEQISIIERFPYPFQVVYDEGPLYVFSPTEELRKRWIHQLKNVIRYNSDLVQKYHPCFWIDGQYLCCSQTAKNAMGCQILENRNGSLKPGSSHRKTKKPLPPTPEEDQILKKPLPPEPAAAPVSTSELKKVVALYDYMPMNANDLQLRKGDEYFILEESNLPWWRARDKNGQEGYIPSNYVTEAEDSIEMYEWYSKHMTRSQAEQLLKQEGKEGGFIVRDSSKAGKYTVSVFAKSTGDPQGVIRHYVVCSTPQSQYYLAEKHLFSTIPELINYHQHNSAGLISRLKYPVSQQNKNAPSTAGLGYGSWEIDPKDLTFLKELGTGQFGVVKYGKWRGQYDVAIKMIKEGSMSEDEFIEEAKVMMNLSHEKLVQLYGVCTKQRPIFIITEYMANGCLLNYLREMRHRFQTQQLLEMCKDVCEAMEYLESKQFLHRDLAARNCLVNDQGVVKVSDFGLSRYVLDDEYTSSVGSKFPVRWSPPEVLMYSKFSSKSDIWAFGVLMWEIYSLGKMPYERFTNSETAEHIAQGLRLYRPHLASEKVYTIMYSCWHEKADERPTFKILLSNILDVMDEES

Lck = Lck (Homo sapiens, UniProt P06239); experiment: Kinase profiling; assay type: biochemical
PKD1 = PKD1 (Homo sapiens, UniProt Q15139); experiment: Kinase profiling; assay type: biochemical
YES1 = YES1 (Homo sapiens, UniProt P07947); experiment: Kinase profiling; assay type: biochemical
Sequence of YES1 (P07947 whole entry): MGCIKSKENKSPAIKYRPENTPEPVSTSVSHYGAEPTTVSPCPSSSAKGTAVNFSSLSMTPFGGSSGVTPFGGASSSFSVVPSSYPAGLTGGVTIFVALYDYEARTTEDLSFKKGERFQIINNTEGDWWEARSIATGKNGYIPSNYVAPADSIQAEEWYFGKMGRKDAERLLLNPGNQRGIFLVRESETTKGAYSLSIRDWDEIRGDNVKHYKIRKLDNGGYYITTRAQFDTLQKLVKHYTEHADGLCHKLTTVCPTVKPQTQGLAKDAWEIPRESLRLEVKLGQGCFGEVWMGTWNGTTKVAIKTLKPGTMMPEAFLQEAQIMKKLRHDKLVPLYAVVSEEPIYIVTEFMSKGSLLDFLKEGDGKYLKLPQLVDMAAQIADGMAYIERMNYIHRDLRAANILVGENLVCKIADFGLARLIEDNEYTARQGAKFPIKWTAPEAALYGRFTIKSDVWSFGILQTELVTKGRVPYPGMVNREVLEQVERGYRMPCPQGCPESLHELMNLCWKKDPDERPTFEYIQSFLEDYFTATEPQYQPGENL

In the case of Cc1nc(Nc2ncc(C(=O)Nc3c(C)cccc3Cl)s2)cc(N2CCN(CCO)CC2)n1 [Dasatinib], the “Localization of CRTC3” value (CRTC3) is reported as “translocation to the nucleus”, the remaining activity at 0.1 µM (CDK9-Cyclin T1) is reported as 122 ± 8% and the remaining activity at 1 µM (CDK9-Cyclin T1) is reported as 138 ± 12%. The remaining activity at 0.1 µM (CSK) was 97 ± 19%, the remaining activity at 1 µM (CSK) was 8 ± 3% and the remaining activity at 0.1 µM (EIF2AK3) was 106 ± 6%. The remaining activity at 1 µM (EIF2AK3) was 113 ± 2%, the remaining activity at 0.1 µM (IRR) was 89 ± 4% and the remaining activity at 1 µM (IRR) was 90 ± 14%. It also gave a remaining activity at 0.1 µM (NUAK1) of 119 ± 10%, a remaining activity at 1 µM (NUAK1) of 118 ± 8% and a remaining activity at 0.1 µM (TrkA) of 107 ± 11%. It also gave a remaining activity at 1 µM (TrkA) of 88 ± 2%.

For COc1cc(Nc2c(C#N)cnc3cc(OCCCN4CCN(C)CC4)c(OC)cc23)c(Cl)cc1Cl [Bosutinib, bosutinib], the IC50 (SIK3) was 18 nM, the “Localization of CRTC3” value (CRTC3) was “translocation to the nucleus” and the remaining activity at 0.1 µM (BTK; 0.1 µM) was 1%. The remaining activity at 1 µM (BTK; 1 µM) was 1%, the remaining activity at 0.1 µM (CDK9-Cyclin T1) was 101 ± 8% and the remaining activity at 1 µM (CDK9-Cyclin T1) was 125 ± 16%. It also gave a remaining activity at 0.1 µM (CSK) of 65 ± 7%, a remaining activity at 1 µM (CSK) of 4% and a remaining activity at 0.1 µM (EIF2AK3) of 107 ± 5%. It also gave a remaining activity at 1 µM (EIF2AK3) of 103%, a remaining activity at 0.1 µM (IRR) of 72 ± 5% and a remaining activity at 1 µM (IRR) of 59 ± 1%. For the same compound, the remaining activity at 0.1 µM (Lck; 0.1 µM) was 1%, the remaining activity at 1 µM (Lck; 1 µM) was 1% and the remaining activity at 0.1 µM (NUAK1) was 63 ± 12%. The remaining activity at 1 µM (NUAK1) was 21 ± 2%, the remaining activity at 0.1 µM (PKD1) was 89 ± 2% and the remaining activity at 0.1 µM (TrkA) was 25 ± 2%. The remaining activity at 1 µM (TrkA) was 7%, the remaining activity at 0.1 µM (YES1; 0.1 µM) was 2 ± 1% and the remaining activity at 1 µM (YES1; 1 µM) was 1%.
